Measurements as given in patent US8609645B2, “Pharmaceutical formulation” (Intervet Inc., priority 2004, dated 2013).

Assays:
[1] = cited from earlier work
[2] = cited from earlier work; remark: listed apart in the source
fungi = assay: Antifungal activity compared with traditional veterinary antifungal compounds; conditions: fold versus clotrimazole, miconazole, nystatin
Source text: The antifungal drug preferably is posaconazole, a drug with 10-400× the antifungal activity of traditional antifungal compounds used in veterinary medicine such as clotrimazole, miconazole, nystatin. It will be the first use of a triazole antifungal in veterinary medicine. The combination for this proposed otic product is new. The product requires only one application per day. In summary, the justification for use of the centralized procedure is: • Novel antibiotic in an otic preparation with none of the ototoxicity of the aminoglycosides often used in such products; • Novel, corticosteroid, with a better safety profile when compared other corticosteroids used in otic preparations; • Potent triazole anti-fungal drug; • Novel combination of the three drugs described above; • Single daily application.

| SMILES | partition coefficient between octanol and water [1] | solubility in acetone ([2]; acetone) | solubility in chloroform ([2]; chloroform) | solubility in ethanol ([2]; ethanol) | solubility in isopropanol ([2]; isopropanol) | solubility in methanol ([2]; methanol) | solubility in tetrahydrofuran ([2]; tetrahydrofuran) | solubility in water ([2]; water) | antifungal activity relative to traditional antifungal compounds (fungi) |
| --- | --- | --- | --- | --- | --- | --- | --- | --- | --- |
| C[C@@H]1C[C@H]2[C@@H]3CCC4=CC(=O)C=C[C@]4(C)[C@@]3(Cl)[C@@H](O)C[C@]2(C)[C@@]1(OC(=O)c1ccco1)C(=O)CCl [Mometasone Furoate, 9,21-Dichloro-11(beta),17-dihydroxy-16(alpha)-methylpregna-1,4-diene-3,20-dione 17-(2 Furoate)] | greater than 5000 | soluble | soluble | slightly soluble | slightly soluble | slightly soluble | freely soluble | practically insoluble | – |
| CC[C@@H]([C@H](C)O)n1ncn(-c2ccc(N3CCN(c4ccc(OC[C@@H]5CO[C@@](Cn6cncn6)(c6ccc(F)cc6F)C5)cc4)CC3)cc2)c1=O [posaconazole] | – | – | – | – | – | – | – | – | 10-400 × |
